Source: patent US9073861B2, “Diphenylmethyl piperazine derivative and pharmaceutical composition using same” (AETAS PHARMA CO., LTD., priority 2011, dated 2015)

How the values were obtained:
normal rats = experiment: Hemodynamics before and after intravenous administration in anesthetized normal rats (left ventricular pressure catheter); assay type: in vivo, Wistar male rats; conditions: 0.1 mg/kg/min for 10 min i.v.; for maximum +dP/dt after administration as compared to that by the comparative compound [A]: FIG. 7; for maximum −dP/dt after administration as compared to that by the comparative compound [A]: FIG. 8
Protocol: Wistar male rats were bred for a week and then anesthetized by inhalation of 3% isoflurane. A pressure sensor-tipped catheter (2F Millar) was inserted into the left ventricle from the right common carotid artery, and a polyethylene tube (SP10) for injection of the compounds of the present invention or physiological saline was inserted from the right femoral vein. After stabilizing hemodynamics for 10 minutes, the compound [2] of the present invention was administered from the polyethylene tube at 0.1 mg/kg/min for 10 min, and the cardiac rate, left ventricular pressure, maximum +dP/dt, and maximum −dP/dt were measured for 20 heart beats every minute. In the control group, only physiological saline, which is a solvent, was administered. It is noted that the injection rate of each solution was 16.6 μl per min.
The cardiac rate, maximum left ventricular pressure, maximum +dP/dt and maximum −dP/dt before administration of a drug were considered as 100%, and the values after administration were represented by values (% representation) relative to the values before administration. Using n=3 rats, experiments were carried out. Data are shown as mean and standard deviation. Consequently, cardiac rate before and after administration (the left side in FIG. 1) and changes in the maximum left ventricular pressure (the right side in FIG. 1) are shown in FIG. 1, and changes in the maximum +dP/dt (the left side in FIG. 2) and changes in the maximum −dP/dt (the right side in FIG. 2) are shown in FIG. 2.
(§1) Wistar male rats were bred for a week and then anesthetized by inhalation of 3% isoflurane. Experiments were carried out in the same manner as in Test Example 1, and the compound [3] of the present invention was administered as a test compound at 0.1 mg/kg/min for 10 min, and the cardiac rate, left ventricular pressure, maximum +dP/dt, and maximum −dP/dt were measured for 20 heart beats every minute. The maximum +dP/dt or the maximum −dP/dt before administration was considered as 100%, and the value after administration was represented by a value (% representation) relative to the value before administration. Data are shown as mean and standard deviation. Using n=3 rats, experiments were carried out.
as §1, with “[4]” for “[3]”
Wistar male rats were bred for a week and then anesthetized by inhalation of 3% isoflurane. Experiments were carried out in the same manner as in Test Example 1, and the comparison comparative compound [A] was administered as a test compound at 0.1 mg/kg/min for 10 min, and the cardiac rate, left ventricular pressure, maximum +dP/dt, and maximum −dP/dt were measured for 20 heart beats every minute. The maximum +dP/dt or the maximum −dP/dt before administration was considered as 100%, and the value after administration was represented by a value (% representation) relative to the value before administration. Data are shown as mean and standard deviation. Using n=3 rats, experiments were carried out.
From the results of the tests carried out in Test Examples 1, 3, 4 and 5, the maximum +dP/dt (FIG. 7) and the maximum −dP/dt (FIG. 8) after administration of the compound [2], and compound [3], and compound [4] of the present invention as well as the comparative compound [A] were compared and examined.

[1] = test system: rats with obsolete myocardial infarction; experiment: Effect on myocardial contraction and relaxation in rats with obsolete myocardial infarction (coronary ligation, one month after operation); assay type: in vivo, Wistar male rats; conditions: 0.1 mg/kg/min for 10 min i.v., n=3
Text: Wistar male rats were anesthetized by inhalation of 3% isoflurane. The chest was opened at the left third intercostal space and the pericardial membrane was incised. The left anterior descending coronary artery was completely ligated with silk string (6.0; Ethicon) in the infarction group, and then the chest was immediately closed. Following this procedure, the inserted endotracheal tube was removed, and rats were awakened and then returned to a breeding room.
One month after operation, rats were anesthetized and endotracheally intubated, a pressure sensor-tipped catheter (2F Millar) was inserted into the left ventricle from the right common carotid artery, and a polyethylene tube (SP10) for injection of physiological saline or the compounds of the present invention was inserted from the right femoral vein in the same manner as in Test Example 1. After stabilizing hemodynamics for 10 minutes, the compound [2] of the present invention was administered from the polyethylene tube at 0.1 mg/kg/min for 10 min, and the cardiac rate, left ventricular pressure, maximum +dP/dt, and maximum −dP/dt were measured for 20 heart beats every minute. In the control group, only physiological saline, which is a solvent, was administered. It is noted that the injection rate of each solution was 16.6 μl per min. Using n=3 rats, experiments were carried out.
The maximum +dP/dt or the maximum −dP/dt before administration was considered as 100%, and the value after administration was represented by a value (% representation) relative to the value before administration. Data are shown as mean and standard deviation.

Row | Structure (SMILES) | maximum +dP/dt (index of contractile function) after vs before administration (normal rats; pre-administration = 100%, n=3) | maximum −dP/dt (index of relaxing function) after vs before administration (normal rats; pre-administration = 100%, n=3) | maximum +dP/dt after administration as compared to that by the comparative compound [A] (normal rats) | maximum −dP/dt after administration as compared to that by the comparative compound [A] (normal rats) | cardiac rate after administration relative to before administration (normal rats; pre-administration = 100%, n=3) | left ventricular pressure after administration relative to before administration (normal rats; pre-administration = 100%, n=3) | cardiac rate after vs before administration [1] | left ventricular pressure after vs before administration [1] | maximum +dP/dt after vs before administration ([1]; pre-administration = 100%) | maximum −dP/dt after vs before administration ([1]; pre-administration = 100%)
1 | OC(CN1CCN(C(c2ccccc2)c2ccccc2)CC1)CN1CCC(O)(c2ccc(Cl)cc2)CC1 (centres unmarked) [comparative compound [A], 1-[4-(diphenylmethyl)piperazinyl]-3-[4-(4-chlorophenyl)-4-hydroxy-piperidinyl]-2-propanol, reference compound] | tended to slightly increase after administration of the comparative compound [A], but significant changes were not observed | tended to slightly increase after administration of the comparative compound [A], but significant changes were not observed | – | – | – | – | – | – | – | –
2 | OC(CN1CCN(C(c2ccccc2)c2ccccc2)CC1)CN1CCC(O)(c2ccccc2)CC1 (centres unmarked) [compound [2], 1-[4-(diphenylmethyl)piperazinyl]-3-(4-hydroxy-4-phenyl-piperidinyl)-2-propanol] | significant increases | significant increases | significantly raised | significantly raised | not increased | significantly raised | significant changes in the cardiac rate were not observed | significantly increased | significantly increased | significantly increased
3 | OC1(c2ccc(Cl)cc2)CCN(CCCN2CCN(C(c3ccccc3)c3ccccc3)CC2)CC1 [compound [3], 1-[4-(diphenylmethyl)piperazinyl]-3-[4-(4-chlorophenyl)-4-hydroxy-piperidinyl]propane] | significantly increased | significantly increased | significantly raised | significantly raised | – | – | – | – | – | –
4 | Cc1ccc(C2(O)CCN(CC(O)CN3CCN(C(c4ccccc4)c4ccccc4)CC3)CC2)cc1 (centres unmarked) [compound [4], 1-[4-(diphenylmethyl)piperazinyl]-3-[4-hydroxy-4-(4-methylphenyl)-piperidinyl]-2-propanol] | significantly increased | significantly increased | significantly raised | significantly raised | – | – | – | – | – | –
